Data reported in article PMC8151276, “An Integrated Approach toward NanoBRET Tracers for Analysis of GPCR Ligand Engagement” (Molecules, 2021).

Target: T1, CCKAR (Homo sapiens, UniProt P32238)
T1 construct: purchased Promega (in-house HiBiT-GPCR construct library, NanoBRET)
T1 sequence (P32238 1-428): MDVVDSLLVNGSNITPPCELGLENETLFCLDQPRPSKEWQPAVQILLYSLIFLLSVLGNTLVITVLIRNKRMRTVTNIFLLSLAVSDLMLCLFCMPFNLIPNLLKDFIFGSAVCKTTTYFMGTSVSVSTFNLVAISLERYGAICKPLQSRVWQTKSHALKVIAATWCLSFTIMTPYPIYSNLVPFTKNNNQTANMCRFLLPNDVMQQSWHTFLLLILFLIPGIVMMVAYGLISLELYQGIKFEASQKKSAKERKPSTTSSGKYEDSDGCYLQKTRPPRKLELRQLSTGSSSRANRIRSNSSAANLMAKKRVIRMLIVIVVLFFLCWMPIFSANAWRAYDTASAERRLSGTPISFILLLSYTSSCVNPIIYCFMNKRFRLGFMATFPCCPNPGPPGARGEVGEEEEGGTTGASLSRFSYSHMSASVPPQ
Assay: NanoBRET screen HiBiT-CCKAR in HEK293
Assay type: binding
Experimental: Each tracer candidate was screened across the entire library of HiBiT-GPCR constructs using NanoBRET as the detection modality. As depicted in Figure 4A, the specificity of interactions was evaluated through decrease in BRET due to competitive displacement of a bound tracer by excess parental compound. Each tracer was analyzed for binding to each HiBiT-GPCR fusion in the absence and in the presence of competing parental compound. Briefly, HEK293 cells were transfected with HiBiT-GPCR constructs diluted into promoterless DNA to reduce expression and maximize translocation to the cell surface. Each tracer candidate was then screened at concentrations of 1 μM and 0.1 μM across cells expressing these fusions. Cells were treated for 1.5 h with tracer either alone or in the presence of 20 μM competing parental compound (i.e., control). BRET was measured upon addition of purified LgBiT and subsequent complementation with HiBiT genetically fused to a GPCR. The specificity of interactions was assessed through a decrease in BRET signal due to competitive displacement of the bound tracer. To further gauge the robustness of these interactions, the fold response over the control (i.e., BRETtracer/BRETcontrol) was calculated. We chose a 1.5-fold response, which translates to ≥7-fold signal over noise as the minimal threshold required to score an interaction as positive. […]. Below we highlight the screening results obtained for our exemplary fluorescent tracers based on Clozapine, Amitriptyline and AZD1283.
HiBiT-GPCR DNA constructs were diluted in 10 mM Tris pH 8 to a final concentration of 0.01 μg/μL, arrayed in 96-well plates and stored at −20 °C. For transfection, HEK293 cells were suspended in Opti-MEM (without phenol red) supplemented with 2% fetal bovine serum (Seradigm) and 100 units/mL penicillin–streptomycin (Gibco) at a final concentration of 220,000 cells/mL and dispensed into white 96-well plates at 90 μL/well. Subsequent transfections and screens were carried using an Agilent Bravo Automated Liquid Handling Platform. First, the 96-well HiBiT DNA arrays were diluted 25-fold in Opti-MEM (without serum or phenol red) to a final concentration of 0.0004 μg/μL and 20 μL of the diluted DNAs were transferred into new 96-well plates. Next, promoterless carrier DNA (1 μg/μL) was diluted 25-fold (0.04 μg/μL) and then dispensed into the diluted arrays at 20 μL/well. Following brief mixing, Viafect transfection reagent (Promega) diluted 16-fold into Opti-MEM was dispensed into the plates at 40 μL/well. After mixing by pipetting, plates were incubated for 10 min on the pipetting station deck. The DNA-transfection reagent complexes were then added to plates containing cells. To facilitate the screen, 10 μL of DNA-transfection reagent complexes were added in duplicates to the top 4 and bottom 4 rows, resulting in two identical 48-well arrays per plate. Plates with transfected cells were incubated for 18–20 h at 37 °C/5% CO2. A screen of each tracer across the entire library using two different concentrations requires duplicate plates of transfected cells. Depending on the number of tracers being screened, transfections can be scaled up using the same ratios. The next day, for each tracer, four 20× screening solutions in tracer dilution buffer (Promega) were prepared: two duplicates at final concentration of 20 μM and two duplicates at a final concentration of 2 μM. A competing unmodified compound was added to one of each duplicate at a final concentration of 400 μM. The four resulting solutions were diluted 4-fold in Opti-MEM without serum or phenol red to generate 5× solutions (5 µM and 0.5 µM tracer +/− 100 μM competing compound). To screen the library, a BioTek MultiFlo FX liquid dispenser was used to dispense 22.5 µL of tracer solution to the top 4 rows and 22.5 µL tracer + competing compound solution to the 4 bottom rows. Plates were briefly mixed on an orbital shaker and incubated for 1.5 h at room temperature. […]

SMILES	NanoBRET Fold Response (CCKAR, tracer 0.1μM)	NanoBRET Fold Response (CCKAR, tracer 1μM)	also measured
Cc1nc2n(c(=O)c1CCN1CCC(c3noc4cc(F)ccc34)CC1)CCCC2OC(=O)NCCOCCOCCOCCOCCNC(=O)CCc1ccc2n1[B-](F)(F)[N+]1=C(c3ccc[nH]3)C=CC1=C2 (centres unmarked) [Risperidone-2-NB590]	1.20	0.99	–
CCOC(=O)c1cc(C#N)c(N2CCC(C(=O)NS(=O)(=O)Cc3ccccc3/C=C/C(=O)NCCNC(=O)CCc3ccc4n3[B-](F)(F)[N+]3=C(c5ccc[nH]5)C=CC3=C4)CC2)nc1C [AZD1283-1-NB590]	–	–	NanoBRET Fold Response (CCKAR, 0.1μM): 1.08; NanoBRET Fold Response (CCKAR, 1μM): 1.11
Cc1cc2c(s1)Nc1ccccc1N=C2N1CCN(CCCNC(=O)CCOCCOCCOCCOCCNC(=O)CCc2ccc3n2[B-](F)(F)[N+]2=C(c4ccc[nH]4)C=CC2=C3)CC1 [Olanzapine-a-2-NB590]	1.02	1.04	–
COc1ccccc1N1CCN(CCCCN2C(=O)c3ccc(CNC(=O)CCOCCNC(=O)c4ccc(CNC(=O)CCc5ccc6n5[B-](F)(F)[N+]5=C(c7ccc[nH]7)C=CC5=C6)cc4)cc3C2=O)CC1 [NAN-190-3-NB590]	0.98	0.99	–
CC(C)N(CC[C@H](c1ccccc1)c1cc(CCNC(=O)CCOCCOCCOCCOCCNC(=O)CCc2ccc3n2[B-](F)(F)[N+]2=C(c4ccc[nH]4)C=CC2=C3)ccc1O)C(C)C [Tolterodine-2-NB590]	1.01	1.01	–
CN(C)CCC=C1c2ccccc2CCc2ccc(C(=O)NCCNC(=O)CCOCCOCCOCCOCCNC(=O)CCc3ccc4n3[B-](F)(F)[N+]3=C(c5ccc[nH]5)C=CC3=C4)cc21 [Amitriptyline-b-2-NB590]	–	–	NanoBRET Fold Response (tracer at 0.1μM, listed as amitriptyline-b-2-NB590): 1.11; NanoBRET Fold Response (tracer at 1μM, listed as amitriptyline-b-2-NB590): 0.98
O=C(CCOCCOCCOCCOCCNC(=O)CCc1ccc2n1[B-](F)(F)[N+]1=C(c3ccc[nH]3)C=CC1=C2)NCCCN1CCN(C2=Nc3ccccc3Oc3ccc(Cl)cc32)CC1 [Loxapine-a-2-NB590]	1.02	0.99	–
CN(C)CCC=C1c2ccccc2CCc2ccc(C(=O)NCCNC(=O)CCOCCOCCOCCOCCNC(=O)CCc3ccc4n3[B-](F)(F)[N+]3=C(c5ccc[nH]5)C=CC3=C4)cc21 [Amitriptyline-a-2-NB590]	–	–	NanoBRET Fold Response (tracer at 0.1μM): 1.03; NanoBRET Fold Response (tracer at 1μM): 1.00
O=C(CCc1ccc2n1[B-](F)(F)[N+]1=C(c3ccc[nH]3)C=CC1=C2)NCCOCCOCCNC(=O)OCCOCCN1CCN(C2=Nc3ccccc3Sc3ccccc32)CC1 [Quetiapine-a-2-NB590]	1.04	0.94	–
COc1ccccc1N1CCN(CCCCN2C(=O)c3ccc(CNC(=O)CCOCCOCCOCCOCCNC(=O)CCc4ccc5n4[B-](F)(F)[N+]4=C(c6ccc[nH]6)C=CC4=C5)cc3C2=O)CC1 [NAN-190-2-NB590]	0.98	0.96	–
CN1CCN(C2=Nc3cc(Cl)ccc3N(CC(=O)NCCOCCOCCOCCOCCNC(=O)CCc3ccc4n3[B-](F)(F)[N+]3=C(c5ccc[nH]5)C=CC3=C4)c3ccccc32)CC1 [Clozapine-c-2-NB590]	–	–	NanoBRET Fold Response (CCKAR, 0.1μM tracer): 1.01; NanoBRET Fold Response (CCKAR, 1μM tracer): 0.74
COc1ccc2[nH]c(-c3ccc(CNC(=O)CCOCCOCCOCCOCCNC(=O)CCc4ccc5n4[B-](F)(F)[N+]4=C(c6ccc[nH]6)C=CC4=C5)cc3)c(CCNC(C)=O)c2n1 [AzomelatoninICO9-2-NB590]	–	–	NanoBRET Fold Response (0.1μM tracer): 1.06; NanoBRET Fold Response (1μM tracer): 1.04
O=C(CCOCCOCCOCCOCCNC(=O)CCc1ccc2n1[B-](F)(F)[N+]1=C(c3ccc[nH]3)C=CC1=C2)NCCCN1CCN(C2=Nc3cc(Cl)ccc3Nc3ccccc32)CC1 [Clozapine-a-2-NB590]	–	–	NanoBRET Fold Response (CCKAR, 0.1μM tracer): 1.01; NanoBRET Fold Response (CCKAR, 1μM tracer): 0.85
CCCn1c(=O)c2[nH]c(-c3ccc(OCC(=O)NCCNC(=O)CCOCCNC(=O)c4ccc(CNC(=O)CCc5ccc6n5[B-](F)(F)[N+]5=C(c7ccc[nH]7)C=CC5=C6)cc4)cc3)nc2n(CCC)c1=O [XAC-3-NB590]	1.01	1.01	–
O=C(CCc1ccc2n1[B-](F)(F)[N+]1=C(c3ccc[nH]3)C=CC1=C2)NCc1ccc(C(=O)NCCOCCOCCNCC(O)COc2cccc3ccccc23)cc1 (centres unmarked) [Propranolol-3-NB590]	–	–	NanoBRET Fold Response (CCKAR, 0.1μM): 0.99; NanoBRET Fold Response (CCKAR, 1μM): 0.98
O=C(CCc1ccc2n1[B-](F)(F)[N+]1=C(c3ccc[nH]3)C=CC1=C2)NCc1ccc(C(=O)NCCOCCC(=O)N[C@@H]2CC[C@@]3(O)[C@H]4Cc5ccc(O)c6c5[C@@]3(CCN4CC3CC3)[C@H]2O6)cc1 [Naltrexone-3-NB590]	1.10	1.05	–
CN(CCC=C1c2ccccc2CCc2ccccc21)C(=O)CCOCCOCCOCCOCCNC(=O)CCc1ccc2n1[B-](F)(F)[N+]1=C(c3ccc[nH]3)C=CC1=C2 [Amitriptyline-e-2-NB590]	–	–	NanoBRET Fold Response (tracer at 1μM): 1.00
N#CN=C(NCCCOc1cccc(CN2CCCCC2)c1)NCCNC(=O)CCOCCOCCOCCOCCNC(=O)CCc1ccc2n1[B-](F)(F)[N+]1=C(c3ccc[nH]3)C=CC1=C2 [Aminopotentidine-2-NB590]	0.98	1.04	–
COc1ccc2c(n1)c(CCNC(C)=O)cn2CCNC(=O)CCc1ccc2n1[B-](F)(F)[N+]1=C(c3ccc[nH]3)C=CC1=C2 [Azamelatonin-1-NB590]	–	–	NanoBRET Fold Response (0.1μM tracer): 1.21; NanoBRET Fold Response (1μM tracer): 0.96
CC(C)N(CC[C@H](c1ccccc1)c1cc(CCNC(=O)c2ccc(CNC(=O)CCc3ccc4n3[B-](F)(F)[N+]3=C(c5ccc[nH]5)C=CC3=C4)cc2)ccc1O)C(C)C [Tolterodine-BZ-NB590]	1.05	1.03	–
CN1CCN(C2=Nc3cc(Cl)ccc3Nc3ccc(CNC(=O)CCOCCOCCOCCOCCNC(=O)CCc4ccc5n4[B-](F)(F)[N+]4=C(c6ccc[nH]6)C=CC4=C5)cc32)CC1 [Clozapine-b-2-NB590]	–	–	NanoBRET Fold Response (CCKAR, 0.1μM tracer): 1.02; NanoBRET Fold Response (CCKAR, 1μM tracer): 0.88
